US5358936A, “Anionic furanose derivatives, methods of making and using the same” (Gordon; Paul, priority 1991, dated 1994)
Several values for one entry are separate records, joined by “and”; a condition that tells them apart may be missing. Equal entries are not always repeated. Entries after “also recorded” stand apart in the source; their conditions may differ. Structures can show the parent of a compound that is named as a salt.

Tests used:
[1] = system: peritoneal neutrophils; assay: In vitro neutrophil chemotaxis toward zymosan-activated rat serum (Example 24); format: cell-based, mouse; conditions: for IC50 / inhibition at 1 µg/mL / inhibition at 10 µg/mL / inhibition at 0.1 µg/mL: Mus musculus, Neutrophil; for IC50: 6 h, 20 percent zymosan-activated rat serum, six hours, 37° C., read-out: ID50 (molar concentration that inhibited chemotaxis by 50 percent); for inhibition at 1 µg/mL / inhibition at 10 µg/mL / inhibition at 0.1 µg/mL: read-out: Percent Inhibition of chemotaxis; for inhibition at 10 µg/mL: dose 10.0 μg/ml; for inhibition at 0.1 µg/mL: dose 0.1 μg/ml
Description: In vitro neutrophil chemotaxis studies were carried out by standard methods, as follows:
Mice were injected with complete Freund's adjuvant (CFA) and peritoneal cells, principally neutrophjls (>90 percent), were reproved from the mice 24 hours thereafter. Blind-well chemotactic chambers (Nucleopore Corp., Pleasanton, Calif.) were utilized.
Medium (RPMI 1640 plus 10 percent fetal calf serum) or medium plus 20 percent zymosan-activated rat serum (ZAS) was added to the lower compartment of each chamber. A nucleopore filter (8 μm pore size) was placed between compartments and 1×10^5 peritoneal neutrophils (above) suspended in medium were placed in the upper compartment. Chambers were incubated for six hours, after which time the filters were removed and stained with Giemsa stain. The number of cells on the lower surface of the filter was counted under a microscope. Treatment groups were assayed in duplicate.
The studies were carried out more specifically as follows:
Zymosan (Sigma Chemical Co., St. Louis, Mo.) was mixed with rat serum for one hour at 37° C. at 1 milligram (mg)/ml. The resulting chemoattractant composition was filtered, aliquotted and stored frozen at -70° C. prior to use.
The above chemoattractant composition was used as a 20 percent v/v solution in medium.
The chemotaxis chambers were arranged as follows:
The chambers were incubated at 37° C. for six hours, after which the chambers were dismantled, and the filters removed and treated as follows:
a) The filters were immersed in Giemsa stain diluted 1:50 for 30-45 minutes.
b) The stained filters were rinsed gently in distilled water for 3-5 minutes.
c) The stained, rinsed filters were air dried without blotting.
Several compounds described herein and control compounds ("drug", above) were examined at various concentrations, in duplicate. The molar concentration of a drug that inhibited the observed chemotaxis by 50 percent, defined as the ID50 value, was determined as shown below.

[2] = system: neutrophils; assay: Microscopic examination of neutrophils for cytotoxicity (Example 24); format: cell-based, mouse
[3] = system: rat paw; assay: Post-ischemic reperfusion paw swelling (Example 22); format: in vivo, Sprague Dawley male rats; conditions: study C, 0.2 mg/kg i.p.
Source text: This important disease model is used to evaluate aspects of tissue injury that occur in heart attack, or myocardial infarction, and stroke. Under these conditions, a significant period of injury can occur after blood flow has been restored, during the period of reperfusion.
To produce ischemia, blood flow to the left hind foot was largely interrupted by application of a tourniquet made up of two size 18 rubber bands wound eight times around the leg just behind the heel. […] Both application and removal of tourniquet were carried out under ether anesthesia. Injury was equated with organ swelling, which was assayed by measurement of the dorsoventral foot diameter with a Schnelltaster caliper, just before application of the tourniquet and at various times following tourniquet removal, during the reperfusion period.
Rats employed were Sprague Dawley males, weighing 240-280 grams. Drug comparisons were made here employing measurements 30 minutes into the reperfusion period. The widely studied drug allopurinol, a xanthine oxidase inhibitor and a free radical scavenging agent, used in the treatment of gout, and widely used to suppress experimental post-ischemic reperfusion injury was used as an experimental treatment standard. In studies below, allopurinol and all new drugs were given intraperitoneally 45-60 minutes prior to application of the tourniquet. Data are reported as the mean swelling (Mn)±standard error (SE). […] Group n is 5 or 6.
In another study, drug comparisons were made at various times after the reperfusion period. In this study, control and drug treatment groups were as above.

[4] = system: foot pad; assay: Inflammation provoked by carrageenan injection (Example 25); format: in vivo, mice; conditions: subcutaneous; ibuprofen 50 mg/kg, Compound III 30 mg/kg; not significant
[5] = system: inflammation in experimental allergic encephalomyelitis; conditions: Willenborg et al. (1989); cited from earlier work
[6] = Solubility / dissolution in acid, water and 20 percent methanol; format: physicochemical; conditions: pH 1.2; Compound III:Al 2.5 mg/ml
[7] = system: gastric mucosal ulcers; assay: Healing of established gastric ulcers induced by acetic acid (Example 34); format: in vivo, rat
Source text: To evaluate drug effects on peptic ulcer healing, gastric mucosal ulcers were produced in rats, after a two day fast, by a modification of the method of Konturek et al., Am. J. Med., Vol. 86, 6A, 32 (1989). Briefly, to produce a mucosal ulcer, Konturek et al. applied 100 percent acetic acid for twenty seconds to the stomach serosa through a small cylindrical mold, 4.2 mm in diameter. The aim here was to make ulceration more severe than was achieved by the Konturek group so that spontaneous healing would not be as pronounced as they found in the controls, over an experimental period of seven days.
All drugs studied were suspended in 0.25 percent (by weight) aqueous methylcellulose solution as the vehicle or diluent, which also served as the placebo given to the controls. Treatments were given once daily by oral gavage, in one milliliter of vehicle. The treatment groups were: Control; Sucralfate at 200 mg/kg; and Compound III:Al at 200 mg/kg.
At the end of the treatment period, stomachs were removed, ulcer diameters were measured, and determination was made of the presence or absence of perforation.
A second study was carried out in which ulcer evolution was permitted to take place over five additional days, in the absence and presence of treatment with Sucralfate.
A third study was begun one day following the start of study 2, in which ulcer evolution was allowed to take place over five additional days, in the absence and presence of treatment with Compound III:Al.
In another study, after ulcer induction as above, a different dosage protocol was employed at 24 hours to evaluate the interaction of Compound III and orally administered sucralfate on ulcer healing. […] Here, daily drug doses of the following were used: (a) sucralfate at 200 mg/kg, alone and (b) in combination with 80 mg/kg Compound III given by mouth at -45 minutes, and, in a third group, (c) in combination with 10 mg/kg Compound III given IV also at -45 minutes. In this interaction study, drug treatment was continued for three and not five days, as was the case for the above studies, followed by passage of two additional non-treatment days before sacrifice of animals for evaluation of stomach ulcer area and perforation.
Data from all ulcer-healing studies employing a drug dosage of 200 mg/kg and the same ulcerogenesis protocol were pooled as to the frequency of gastric perforation observed on day five, not shown separately, with the day six perforation data shown above.

[8] = system: focal submucosal lesions; assay: Ethanol-induced gastric focal lesions (Example 33); format: in vivo, rat; conditions: one hour post-ethanol, 50 mg/kg
[9] = Dissolution and buffering of suspensions, HCl titration (Example 16)
Source text: Note that the term "apparent pK" in this context is meant to encompass the maximization of buffering that come both from solid-state dissolution and its titration as solute.

[10] = system: focal submucosal lesions; assay: Ethanol-induced gastric focal lesions (Example 33); format: in vivo, rat
Description: At three hours after ethanol administration, this drug continued to suppress ethanol-induced focal lesions (-57 percent).
A suspension of 25 mg/kg sucralfate+25 mg/kg Compound III:Al in combination was given as a pretreatment administration to another group in the same study. The combination produced an unanticipated augmentation of therapeutic effect against ethanol-induced focal submucosal lesions (-90 percent) at three hours post-ethanol administration. The same interactive phenomenon was also observed when Compound III was used, rather than Compound III:Al.

[11] = system: mouse blood coagulation
Description: To assess the effect on coagulation, if any, of a compound of the invention, a comparative evaluation was made using mouse blood.
One ml of freshly drawn mouse blood was added to each tube, and the tube contents were mixed. The clotting time was then noted for each tube, and the results are as shown below:

[12] = three hours post-ethanol, 50 mg/kg, combination 25 + 25 mg/kg

Question: With `CC1(C)O[C@H]2O[C@H]([C@H](O)COP(=O)(O)O)[C@H](OP(=O)(O)O)[C@H]2O1` [Compound VI, 1,2-O-(2-Propylidene)-3,6-di-O-phospho-α-D-glucofuranose, tetrapotassium salt] as the compound, how does the IC50 [1] read?
Answer: 1000 nM

Question: What about the inhibition at 1 µg/mL ([1]; dose 1.0 μg/ml) of the same compound?
Answer: 44%

Question: And the inhibition at 10 µg/mL [1]?
Answer: 85%

Question: And the “Percent Inhibition of chemotaxis” value ([1]; dose 1.0 μg/ml)?
Answer: 47.0%

Question: What about the “expressions of cytotoxicity in neutrophils by microscopic examination” value [2] of the same compound?
Answer: diffuse toxic granularity in the cells

Question: What about the “Post-ischemic reperfusion 30 minute paw swelling, Mn ± SE” value ([3]; control 18.4 ± 0.54, P < 0.02) of the same compound?
Answer: 9.1 ± 0.27 0.1 mm

Question: And the “Swelling change as a result of treatment” value ([3]; 30 minutes)?
Answer: -50%

Question: For `CC(C)Cc1ccc(C(C)C(=O)O)cc1` (stereo not drawn) [Ibuprofen, reference compound], which IC50 [1] is on record?
Answer: > 50000 nM

Question: And the inhibition at 0.1 µg/mL [1]?
Answer: 17.5%

Question: And the inhibition at 1 µg/mL ([1]; dose 1.0 μg/ml)?
Answer: 9.3%

Question: And the inhibition at 10 µg/mL [1]?
Answer: 35.5%

Question: What about the reduction in swelling [4] of the same compound?
Answer: 24%

Question: With `O=P(O)(O)OC[C@H]1O[C@H](OP(=O)(O)O)[C@@H](O)[C@@H](O)[C@@H]1O` [Mannose-1,6-diphosphate] as the compound, how does the “effect on inflammation in EAE, in words” value [5] read?
Answer: less effective than mannose-6-phosphate

Question: For `O=P(O)(O)OC[C@H]1OC(O)[C@@H](O)[C@@H](O)[C@@H]1O` (stereo partly drawn) [Mannose-6-phosphate], which “effect on inflammation in EAE, in words” value [5] is on record?
Answer: useful in treating inflammation

Question: Which IC50 [1] does the source give for `CCCN(CCC)S(=O)(=O)c1ccc(C(=O)O)cc1` [Probenecid, reference compound] here?
Answer: 3000 nM

Question: And the inhibition at 0.1 µg/mL [1]?
Answer: 5.5%

Question: And the inhibition at 1 µg/mL ([1]; dose 1.0 μg/ml)?
Answer: 59.5%

Question: And the inhibition at 10 µg/mL [1]?
Answer: 89.5%

Question: What about the “expressions of cytotoxicity in neutrophils by microscopic examination” value [2] of the same compound?
Answer: stringy, elongated deformation in the neutrophils

Question: With `O=P(O)(O)OC[C@H]1OC(O)(COP(=O)(O)O)[C@@H](O)[C@@H]1O` (stereo partly drawn) [fructose-1,6-diphosphate] as the compound, how does the “effect on inflammation in EAE, in words” value [5] read?
Answer: less effective than mannose-6-phosphate

Question: Which “dissolution of suspension in acid” value [6] does the source give for “Aluminum Complex of 1,2-O-(1-Isopropylidene)-3,5,6-Tri-O-Sulfo-D-Glucofuranose [Compound III:Al]” here?
Answer: still not all dissolved

Question: What about the “DRUG EFFECT on mean ulcer score” value ([7]; Day 6, 200 mg/kg oral) of the same compound?
Answer: -80%

Question: And the “Established ulcer score, individual animal (area in cm^2, + 2.0 for perforation)” value ([7]; Day 6, 200 mg/kg oral once daily, * = perforation, 200 mg/kg)?
Answer: 1.2 and 5.75 and 0.72 and 0.8 and 0.5 and 0.3 and 0.56 and 1.4 and 0.90 and 1.44

Question: What about the “MEAN SCORE, established ulcers” value ([7]; Day 6, 200 mg/kg oral, controls 3.03 ± 0.73 (sucralfate study, not significant), 4.12 ± 0.67 (Compound III:Al study, P < 0.001)) of the same compound?
Answer: 0.82 ± 0.13

Question: And the “DRUG EFFECT on mean ulcer area” value ([7]; day six, 200 mg/kg oral)?
Answer: -65%

Question: What about the “Established ulcer area, MEAN” value ([7]; day six, 200 mg/kg oral, controls 2.14 ± 0.43 (sucralfate, P < 0.1), 2.32 ± 0.61 (Compound III:Al, P < 0.05)) of the same compound?
Answer: 0.82 ± 0.13 CM^2

Question: What about the “Perforation As Percent” value ([7]; pooled, 200 mg/kg, control 50, Compound III:Al P < 0.001 vs control and vs sucralfate) of the same compound?
Answer: 0%

Question: What about the “Perforation Frequency” value ([7]; pooled, 200 mg/kg, days five and six, control 26/52) of the same compound?
Answer: 0/49

Question: What about the “change in focal lesions versus control” value [8] of the same compound?
Answer: -100%

Question: And the “Focal Lesions per Stomach” value ([8]; n = 6, control 4.17 ± 1.58, p<0.05)?
Answer: 0.00 per Stomach

Question: What about the “HCl needed to lower pH of suspension to below pH 2.00” value ([9]; 50 mg in 20 ml distilled water, initial pH 4.44 (aluminum trihydroxide), 4.91 (sucralfate), 4.23 (Compound III:Al), water alone 0.30) of the same compound?
Answer: 1.2 meq

Question: What about the “buffering action, in words” value ([9]; HCl titration) of the same compound?
Answer: better dissolution-and-buffering action between pH 4.5 and 2.0 than either aluminum trihydroxide or sucralfate; also recorded: no buffering power whatsoever at this pH value

Question: What about the “Relative Buffering Power between pH 4.5 and 2.0” value ([9]; sucralfate = 1) of the same compound?
Answer: 11

Question: What about the “effect on ethanol-produced gastric pathology, in words” value ([10]; pretreatment 50 mg/kg one hour before ethanol) of the same compound?
Answer: inhibited all focal lesions provoked by ethanol after one hour without suppressing large-vessel vasodilation

Question: What about the “change in focal lesions versus control” value [10, 12] of the same compound?
Answer: -57%

Question: And the “change in focal lesions versus control, study employing Compound III” value [10, 12]?
Answer: -33%

Question: And the “Focal Lesions per Stomach, study employing Compound III” value ([10]; three hours post-ethanol, 50 mg/kg, combination 25 + 25 mg/kg, control 2.25 ± 0.98)?
Answer: 1.50 + 0.76 per Stomach

Question: And the “Focal Lesions per Stomach” value ([10]; three hours post-ethanol, 50 mg/kg, combination 25 + 25 mg/kg, n = 17, control 4.94 ± 1.41)?
Answer: 2.12 ± 0.87 per Stomach

Question: With Heparin as the compound, how does the “effect on blood coagulation, in words” value [11] read?
Answer: uncoagulatable after 60 minutes
